Reference: PMC8070564, “Synthesis and Antiviral Activity of Camphene Derivatives against Different Types of Viruses” (Molecules, 2021)
Where two headings read alike, the source gives them in different places.

How the values were obtained:
in vitro [1] = conditions: African green monkey
rVSV-ΔG-Gn-Gc = assay: microbe, parasite or virus in culture; format: cell-based, Hantaan virus strain 76–118; conditions: Orthohantavirus hantanense, HEK-293T, read-out: IC50 rVSV-ΔG-Gn-Gc
EBOV (strain Zaire) = assay: microbe, parasite or virus in culture; format: cell-based, Ebola virus (EBOV); conditions: for IC50: read-out: IC50 EBOV
[2] = test system: influenza virus A/Puerto Rico/8/34 (H1N1); assay: microbe, parasite or virus in culture; format: cell-based; conditions: H1N1, MDCK, read-out: IC50 H1N1
[3] = Cytotoxicity in HEK293T cells (Table 5); conditions: human
rVSV-ΔG-MarV-GP = assay: organism not typed; format: cell-based, Marburg pseudotype viruses; conditions: HEK-293T, read-out: IC50 MarV-GP
in vitro [4] = conditions: dog
rVSV-ΔG-G = assay: microbe, parasite or virus in culture; format: cell-based; conditions: Vesicular stomatitis virus, HEK-293T, read-out: IC50 VSV-G
rVSV-ΔG-EboV-GP = assay: microbe, parasite or virus in culture; format: cell-based, Ebola pseudotype viruses; conditions: Zaire ebolavirus, HEK-293T, read-out: IC50 EboV-GP
in vitro [5] = conditions: human
in vitro [6] = conditions: African green monkey; remark: listed apart in the source
[7] = test system: vaccinia virus (strain Copenhagen); assay: microbe, parasite or virus in culture; format: cell-based; conditions: Orthopoxvirus vaccinia, Vero, read-out: IC50 VV
[8] = test system: Ebola virus (EBOV) (strain Zaire); conditions: cited from earlier work
[9] = test system: Marburg virus (MARV) (strain Popp); conditions: cited from earlier work
[10] = test system: influenza virus A/Puerto Rico/8/34 (H1N1); conditions: cited from earlier work
vaccinia virus (VV) = conditions: cited from earlier work

SMILES	IC50 [2]	IC50 (rVSV-ΔG-MarV-GP)	CC50 (in vitro [4])	IC50 (rVSV-ΔG-EboV-GP)	CC50 (in vitro [5])	CC50 (in vitro [6])	further results
CC1(C)[C@@H]2CC[C@@]1(C)[C@H](OCCN1CCCC1)C2 (racemic) [Compound 2a, (±)-1-(2-(1,7,7-Trimethylbicyclo(2.2.1)heptan-2-yloxy)ethyl)pyrrolidine]	45.3 ± 5.2 µM	73.6 ± 1.9 µM	> 1190 µM	0.12 ± 0.04 µM	497 ± 8 µM		CC50 (in vitro [1]): 231 ± 16.5 µM; IC50 (rVSV-ΔG-Gn-Gc): 9.1 ± 1.2 µM; IC50 (EBOV (strain Zaire); Zaire ebolavirus, Vero): 18.3 ± 3.1 µM; CC50 [3]: 358 ± 27.8 µM; IC50 (rVSV-ΔG-G): 123 ± 4 µM
CC1(C)[C@@H]2CC[C@@]1(C)[C@H](OCCN1CCCCC1)C2 (racemic) [Compound 3a, (±)-1-(2-(1,7,7-Trimethylbicyclo(2.2.1)heptan-2-yloxy)ethyl)piperidine]	64.8 ± 5.9 µM		> 1130 µM	6.3 ± 0.3 µM	942 ± 18.8 µM		CC50 (in vitro [1]): 55.9 ± 12.2 µM; IC50 (rVSV-ΔG-Gn-Gc): 5 ± 0.8 µM; IC50 (EBOV (strain Zaire); Zaire ebolavirus, Vero): 15.2 ± 2.1 µM; CC50 [3]: 151 ± 18.8 µM; IC50 (rVSV-ΔG-G): 942 ± 18.8 µM
CC1(C)[C@@H]2CC[C@@]1(C)[C@H](OCCCN1CCCCC1)C2 (racemic) [Compound 3b, (±)-1-(3-(1,7,7-Trimethylbicyclo(2.2.1)heptan-2-yloxy)propyl)piperidine]	347 ± 41.1 µM	170 ± 3.8 µM	950 ± 52.5 µM	473 ± 11.4 µM	2120 ± 49.2 µM	140 ± 8.7 µM	IC50 (rVSV-ΔG-G): 946 ± 22.7 µM
CC1CCN(CCO[C@@H]2C[C@H]3CC[C@]2(C)C3(C)C)CC1 (racemic) [Compound 4a, (±)-4-Methyl-1-(2-(1,7,7-trimethylbicyclo(2.2.1)]heptan-2-yloxy)ethyl)piperidine]	37.9 ± 5.6 µM	60.8 ± 1.8 µM	> 1070 µM	1.3 ± 0.1 µM	447 ± 10.7 µM		IC50 EBOV (EBOV (strain Zaire)): did not show antiviral activity; IC50 (rVSV-ΔG-G): 111 ± 3.6 µM
CC1CCN(CCCO[C@@H]2C[C@H]3CC[C@]2(C)C3(C)C)CC1 (racemic) [Compound 4b, (±)-4-Methyl-1-(3-(1,7,7-trimethylbicyclo(2.2.1)heptan-2-yloxy)propyl)piperidine]	69.7 ± 8.4 µM	96.1 ± 3.4 µM	491 ± 32.2 µM		141 ± 3.4 µM	40.9 ± 2.7 µM	
CN1CCN(CCO[C@@H]2C[C@H]3CC[C@]2(C)C3(C)C)CC1 (racemic) [Compound 5a, (±)-1-Methyl-4-(2-(1,7,7-trimethylbicyclo(2.2.1)heptan-2-yloxy)ethyl)piperazine]	13.2 ± 2 µM	85.6 ± 1.8 µM	28.5 ± 1.2 µM		653 ± 14.3 µM	100 ± 6.1 µM	
CN1CCN(CCCO[C@@H]2C[C@H]3CC[C@]2(C)C3(C)C)CC1 (racemic) [Compound 5b, (±)-1-Methyl-4-(3-(1,7,7-trimethylbicyclo(2.2.1)heptan-2-yloxy)propyl)piperazine]	> 37.4 µM		51 ± 4.1 µM		109 ± 3.4 µM	64.2 ± 3.1 µM	
CC1(C)[C@@H]2CC[C@@]1(C)[C@H](OCCN1CCN(Cc3ccccc3)CC1)C2 (racemic) [Compound 6a, (±)-1-Benzyl-4-(2-(1,7,7-trimethylbicyclo(2.2.1)heptan-2-yloxy)ethyl)piperazine]	3.4 ± 0.5 µM		33.7 ± 2.8 µM		575 ± 11.2 µM	14 ± 1.7 µM	
CC1(C)[C@@H]2CC[C@@]1(C)[C@H](OCCCN1CCN(Cc3ccccc3)CC1)C2 (racemic) [Compound 6b, (±)-1-Benzyl-4-(3-(1,7,7-trimethylbicyclo(2.2.1)heptan-2-yloxy)propyl)piperazine]	> 8 µM	124 ± 2.7 µM	10.8 ± 0.8 µM	67.5 ± 2.7 µM	148 ± 5.4 µM	21.3 ± 2.2 µM	
CC1(C)[C@@H]2CC[C@@]1(C)[C@H](OCCN1CCOCC1)C2 (racemic) [Compound 7a, (±)-4-(2-(1,7,7-Trimethylbicyclo(2.2.1)heptan-2-yloxy)ethyl)morpholine]	252 ± 31.1 µM	150 ± 3.7 µM	385 ± 19.7 µM	0.6 ± 0.2 µM	860 ± 22.4 µM		IC50 (rVSV-ΔG-Gn-Gc): 14.8 ± 1.9 µM; IC50 (EBOV (strain Zaire); Zaire ebolavirus, Vero): 5.63 µM; IC50 (EBOV (strain Zaire)): 5.6 ± 0.9 µM; CC50 [3]: 1160 ± 56.1 µM; IC50 (rVSV-ΔG-G): 935 ± 26.2 µM
CC1(C)[C@@H]2CC[C@@]1(C)[C@H](OCCCN1CCOCC1)C2 (racemic) [Compound 7b, (±)-4-(3-(1,7,7-trimethylbicyclo(2.2.1)heptan-2-yloxy)propyl)morpholine]	24.2 ± 3.1 µM		562 ± 48.2 µM		1440 ± 28.4 µM	174 ± 11.9 µM	
CC1(C)[C@@H]2CC[C@@]1(C)[C@H](OCCN1CCCCCC1)C2 (racemic) [Compound 8a, (±)-1-(2-(1,7,7-Trimethylbicyclo(2.2.1)heptan-2-yloxy)ethyl)azepane]	35.3 ± 5 µM	90.2 ± 3.6 µM	50.5 ± 4.5 µM	112 ± 3.6 µM	721 ± 14.4 µM	19.1 ± 2.5 µM	IC50 (rVSV-ΔG-G): 361 ± 10.8 µM
CC1(C)[C@@H]2CC[C@@]1(C)[C@H](OCCCN1CCCCCC1)C2 (racemic) [Compound 8b, (±)-1-(3-((1,7,7-Trimethylbicyclo(2.2.1)heptan-2-yloxy)propyl)azepane]	320 ± 36.9 µM		374 ± 22.8 µM		704 ± 10.3 µM	23.7 ± 2.7 µM	
Nc1ccn(C[C@@H](CO)OCP(=O)(O)O)c(=O)n1 [Cidofovir, reference compound]						475 ± 30.1 µM	IC50 [7]: 40 ± 1.2 µM
CC1(C)[C@H]2CC[C@]1(C)[C@H](OC(=O)CCN1CCCCC1)C2 [Ia]							IC50 [8]: 47.5 µM; IC50 [9]: 3.7 µM; IC50 [10]: 7.8 µM; IC50 (vaccinia virus (VV)): 121 µM
CC1CCN(CCC(=O)O[C@@H]2C[C@@H]3CC[C@@]2(C)C3(C)C)CC1 [Ib]							IC50 [8]: 54.3 µM; IC50 [9]: 2.2 µM; IC50 [10]: 15.3 µM
CN1CCN(CCC(=O)O[C@@H]2C[C@@H]3CC[C@@]2(C)C3(C)C)CC1 [Ic]							IC50 [10]: 1.9 µM; IC50 (vaccinia virus (VV)): 64.8 µM
CC1(C)[C@H]2CC[C@]1(C)[C@H](OC(=O)CCN1CCOCC1)C2 [Id]							IC50 [10]: 12.2 µM; IC50 (vaccinia virus (VV)): 3.4 µM
NC(=O)c1ncn([C@@H]2O[C@H](CO)[C@@H](O)[C@H]2O)n1 [Ribavirin, reference compound]	24.6 ± 3.7 µM		> 2000 µM				
CC(N)C12CC3CC(CC(C3)C1)C2 (stereo not drawn) [Rimantadine, reference compound]	67 ± 4.9 µM		335 ± 27 µM				
O=C(NN1C(=O)[C@@H]2[C@@H]3C=C[C@@H]([C@H]4C[C@@H]34)[C@@H]2C1=O)c1ccc(C(F)(F)F)cc1 [ST-246, reference compound]						1280 ± 202 µM	IC50 [7]: 0.01 ± 0.003 µM
CN[C@H]1CC[C@@H](c2ccc(Cl)c(Cl)c2)c2ccccc21 [Sertraline, sertraline, reference compound]					408 ± 35.9 µM		
